# Assay results reported in patent US8575211B2, “Synergistic combination of analgesic compounds” (Biocodex, priority 2008, dated 2013).
# Counter-ions that a name gives are not always drawn. Like-named read-outs stand apart in the source and are kept apart here.
# Experiments:
# [1] = tested on: abdominal cramps induced in mice by acetic acid; settings: oral route, cited from earlier work
# [2] = tested on: abdominal cramps induced in mice by acetic acid; test: abdominal cramps induced in mice by intraperitoneal acetic acid, products by the subcutaneous route; format: in vivo; settings: for ED50: Mus musculus, product alone, subcutaneous, 30 min before acetic acid i.p., read-out: ED50 (dose producing 50% reduction in the number of cramps)
# Method: The analgesic effect of a nefopam-ibuprofen combination was studied in the model of abdominal cramps induced in mice by the intraperitoneal administration of acetic acid. This model of pain induced by a chemical substance corresponds to acute, visceral, inflammatory pain. Male CD1 mice (C. River breed) weighing from 25 to 30 grams are used after an acclimatization of at least 7 days in the animal facility (t°=22±2; hygrometry=50±20%; food […]-darkness: […])). On the day of the experiment, the non-fasting mice are weighed, marked and divided at random into groups of 10. The acetic acid solution (Sigma) is prepared at 0.6% (0.1 ml/10 g) i.e. 60 mg of acetic acid in 10 ml of NaCl at 0.9%. At t=0, the mouse receives the product under study or the carrier liquid by the subcutaneous route (0.1 ml/10 g). At t=30 minutes, the acetic acid is injected by the intraperitoneal route (0.1 ml/10 g). A count is taken of the number of abdominal cramps from 5 to 20 minutes after the injection of acetic acid. Clear abdominal cramps characterized by stretching of the hind paws and/or hollowing of the flanks with writhing are regarded as positive. Nefopam hydrochloride (Biocodex, lot 38) (referred to hereinafter simply as nefopam) is dissolved in distilled water or in NaCl at 0.9%. The ibuprofen (Sigma, ref 1-4883) is suspended in Tween 80 at 1%. The test used is a variance analysis based on 3 groups and a Student's t test for 2 groups. The treated group(s) that differ(s) from the control group is (are) then determined. The effective doses for 50% antinociceptive effect (ED50) are calculated using the PharmToolsPro program (version 1.1.27, […] Group Inc.) in accordance with the Tallarida (2000) method Drugs synergism and dose-effect data analysis CRC Press). At least 10 mice are used for each dose, and at least 3 doses are used to determine the dose-response curve. The dose that produces 50% antinociceptive effect (50% reduction in the number of cramps) is calculated by a standard linear regression analysis of the dose-response curve. The interaction is evaluated by an isobolographic analysis of the co-administration of a combination of doses at a fixed ratio according to Tallarida (2000) op. cit., Tallarida et al. (1989) Life Sci. 45:947-961 and Tallarida et al. (1997) Life Sci. 61:PL417-PL425. The isobologram is constructed by joining the ED50 of the ibuprofen with that of the nefopam in order to obtain the additivity line. The ED50 of the combination is determined by linear regression analysis of the dose-response curve and it is compared by at test with a theoretical additive ED50 obtained using the PharmToolsPro software.
structure (smiles),measurement,setting,value
"CC(C)Cc1ccc(C(C)C(=O)O)cc1 (stereo not shown) [Ibuprofen, ibuprofen]",dose from which antinociceptive activity is significant,[1]; Dolezal & Kusiak (2002),≥ 30 mg/kg
same,ED50,[1]; Jones et al. (2005),95 mg/kg
same,ED50,[2],18.6 ± 2.4 mg/kg
same,% variation of number of cramps,[2]; ibuprofen 1 mg/kg s.c.,+7%
same,Number of cramps (mean ± sem),[2]; ibuprofen 1 mg/kg s.c.,40.2 ± 3.2
same,% variation of number of cramps,[2]; ibuprofen 3 mg/kg s.c.,+14%
same,Number of cramps (mean ± sem),[2]; ibuprofen 3 mg/kg s.c.,43.0 ± 6.6
same,% variation of number of cramps,[2]; ibuprofen 10 mg/kg s.c.,−29%
same,Number of cramps (mean ± sem),[2]; ibuprofen 10 mg/kg s.c.,26.8 ± 3.9
same,% variation of number of cramps,[2]; ibuprofen 20 mg/kg s.c.,−41%
same,Number of cramps (mean ± sem),[2]; ibuprofen 20 mg/kg s.c.,22.0 ± 2.0
same,% variation of number of cramps,[2]; ibuprofen 30 mg/kg s.c.,−68%
same,Number of cramps (mean ± sem),[2]; ibuprofen 30 mg/kg s.c.,12.1 ± 2.7
same,% variation of number of cramps,[2]; ibuprofen 50 mg/kg s.c.,−84%
same,Number of cramps (mean ± sem),[2]; ibuprofen 50 mg/kg s.c.,5.9 ± 1.3
same,% variation of number of cramps,[2]; ibuprofen 100 mg/kg s.c.,−84%
same,Number of cramps (mean ± sem),[2]; ibuprofen 100 mg/kg s.c.,6.0 ± 1.4
"CN1CCOC(c2ccccc2)c2ccccc2C1 (stereo not shown) [Nefopam, Nefopam hydrochloride]",ED50,[2],2.4 ± 0.215 mg/kg
same,% variation of number of cramps,[2]; nefopam 0.3 mg/kg s.c.,−9%
same,Number of cramps (mean ± sem),[2]; nefopam 0.3 mg/kg s.c.,33.6 ± 3.8
same,% variation of number of cramps,[2]; nefopam 1.0 mg/kg s.c.,−25%
same,Number of cramps (mean ± sem),[2]; nefopam 1.0 mg/kg s.c.,28.0 ± 6.3
same,% variation of number of cramps,[2]; nefopam 3.0 mg/kg s.c.,−55%
same,Number of cramps (mean ± sem),[2]; nefopam 3.0 mg/kg s.c.,16.7 ± 2.0
same,% variation of number of cramps,[2]; nefopam 10.0 mg/kg s.c.,−81%
same,Number of cramps (mean ± sem),[2]; nefopam 10.0 mg/kg s.c.,7.1 ± 1.7
same,% variation of number of cramps,[2]; nefopam 20.0 mg/kg s.c.,−98%
same,Number of cramps (mean ± sem),[2]; nefopam 20.0 mg/kg s.c.,0.6 ± 0.3
